Data from patent US12291502B2, “Topoisomerase II-alpha inhibitors and methods of treating cancer using the same” (The Regents of the University of Colorado, priority 2019, dated 2025).
Where “and” joins values, the source holds several entries; their conditions need not be identical. Equal entries are not always repeated. Entries after “also recorded” stand apart in the source; their conditions may differ. Where two headings read alike, the source gives them in different places.

Columns and labels:
Human TOP2A = target: T1, Human TOP2A (Homo sapiens, UniProt P11388); assay: TOP2A DNA decatenation assay (kDNA, agarose gel); type: biochemical; details: for IC50: decatenation dose response; for % Inhibition TOP2A (30 μM) / inhibition at 30 µM: decatenation, 30 μM fixed concentration; for TOP2A inhibition, result in words: decatenation screen at 30 μM; for inhibition at 30 µM: 1 h, read-out: % Inhibition TOP2A (30 μM)
T1 construct: purchased TopoGEN (Buena Vista, CO)
T1 sequence (P11388 whole entry): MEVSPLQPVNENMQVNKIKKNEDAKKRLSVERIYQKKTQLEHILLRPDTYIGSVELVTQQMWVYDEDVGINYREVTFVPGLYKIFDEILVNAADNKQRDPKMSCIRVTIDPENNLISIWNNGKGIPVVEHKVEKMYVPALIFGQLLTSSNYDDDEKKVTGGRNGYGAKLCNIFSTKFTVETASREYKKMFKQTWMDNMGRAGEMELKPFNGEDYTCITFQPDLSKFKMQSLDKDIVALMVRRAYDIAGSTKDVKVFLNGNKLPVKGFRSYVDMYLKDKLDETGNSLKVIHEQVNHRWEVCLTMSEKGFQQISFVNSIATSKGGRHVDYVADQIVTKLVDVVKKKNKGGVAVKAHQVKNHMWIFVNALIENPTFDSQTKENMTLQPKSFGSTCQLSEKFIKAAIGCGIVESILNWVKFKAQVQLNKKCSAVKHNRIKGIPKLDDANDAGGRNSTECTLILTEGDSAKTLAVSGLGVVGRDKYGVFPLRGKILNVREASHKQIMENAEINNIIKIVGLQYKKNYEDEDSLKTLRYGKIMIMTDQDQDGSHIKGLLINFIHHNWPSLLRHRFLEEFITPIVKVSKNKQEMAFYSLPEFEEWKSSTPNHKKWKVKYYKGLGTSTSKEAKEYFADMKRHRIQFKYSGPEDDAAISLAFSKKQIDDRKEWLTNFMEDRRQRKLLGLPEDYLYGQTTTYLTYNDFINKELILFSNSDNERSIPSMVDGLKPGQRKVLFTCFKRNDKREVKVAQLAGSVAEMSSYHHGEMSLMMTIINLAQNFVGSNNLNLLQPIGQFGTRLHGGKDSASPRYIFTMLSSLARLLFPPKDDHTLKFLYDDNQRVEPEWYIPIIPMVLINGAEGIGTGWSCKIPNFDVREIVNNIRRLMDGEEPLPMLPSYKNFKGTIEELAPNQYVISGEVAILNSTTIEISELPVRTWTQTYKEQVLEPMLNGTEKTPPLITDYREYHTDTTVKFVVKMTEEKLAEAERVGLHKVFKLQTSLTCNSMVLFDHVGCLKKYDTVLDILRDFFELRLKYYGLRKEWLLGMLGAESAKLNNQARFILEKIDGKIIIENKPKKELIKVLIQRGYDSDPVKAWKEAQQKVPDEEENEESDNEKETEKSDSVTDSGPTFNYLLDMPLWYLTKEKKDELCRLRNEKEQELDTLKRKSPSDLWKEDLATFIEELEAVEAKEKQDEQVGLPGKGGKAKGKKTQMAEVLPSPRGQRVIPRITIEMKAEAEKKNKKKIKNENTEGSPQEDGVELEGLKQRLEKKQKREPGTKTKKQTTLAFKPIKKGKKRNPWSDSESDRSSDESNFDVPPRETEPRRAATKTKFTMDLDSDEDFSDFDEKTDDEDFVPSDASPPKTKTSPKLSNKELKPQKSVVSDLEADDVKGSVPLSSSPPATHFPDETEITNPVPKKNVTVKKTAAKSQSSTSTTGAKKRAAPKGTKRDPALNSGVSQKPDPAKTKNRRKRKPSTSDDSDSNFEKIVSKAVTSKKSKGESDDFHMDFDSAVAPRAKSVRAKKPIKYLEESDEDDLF
Method: Inhibition of TOP2A activity. Human TOP2A, kDNA, and assay buffers were obtained from TopoGEN (Buena Vista, CO). The synthesized compounds were screened for their TOP2A inhibitory activity by the intensity of DNA decatenation bands on a DNA gel when compared to the vehicle. Compounds were initially incubated with TOP2A (3 U/reaction) for 20 min at a 30 μM and 1.2% DMSO concentration in a 37° C. incubator without CO2.
The decatenation reaction was initiated immediately after by adding 2 mM ATP and 35 ng/reaction of kDNA, then incubated for 1 hour in a 37° C. water bath. The samples were loaded into a 0.8% agarose gel in 1× Tris-Borate-EDTA (TBE) at a 0.2 μg/mL ethidium bromide concentration and allowed to run in an electrophoretic chamber for 1 hour at 100V. Compounds with the highest inhibitory activity were selected for 2-fold serial dilution dose-response assays (58.6 nM-30 μM). The dose-response assays followed the same protocol with the exception of 4 U/reaction of TOP2A.
Inhibition studies of TOP2A and observed structure activity relationships (SAR). DNA catenation/decatenation or linking/unlinking of DNA is one of the main TOP2A functions essential for regulating DNA topology, and this is ATP dependent. […] Thus, as a starting point, the synthesized analogs were screened against TOP2A-dependent decatenation using 30 μM fixed concentrations, and the DNA from reactions were resolved on 0.8% agarose gels containing ethidium bromide.
Moreover, these studies provided interesting SAR, which shed light on the potential lead drug target binding interactions and affinity, biological activity, and future drug design optimization with this unique class of TOP2A inhibitors.
(§1) TOP2A decatenation assay. Human TOP2A, kDNA, and assay buffers were obtained from TopoGEN (Buena Vista, CO). The synthesized compounds were screened for their TOP2A inhibitory activity by the intensity of DNA decatenation bands on a DNA gel when compared to the vehicle. Compounds were initially incubated with TOP2A (3 U/reaction) for 20 min at a 30 μM and 1.2% DMSO concentration in a 37° C. incubator without CO2. The decatenation reaction was initiated immediately after by adding 2 mM ATP and 35 ng/reaction of kDNA, then incubated for 1 h in a 37° C. water bath. The samples were loaded into a 0.8% agarose gel in 1× Tris-Borate-EDTA (TBE) at a 0.2 μg/mL ethidium bromide concentration and allowed to run in an electrophoretic chamber for 1 h at 100V. Compounds with the highest inhibitory activity were selected for 2-fold serial dilution dose-response assays (58.6 nM-30 μM). The dose-response assays followed the same protocol with the exception of 4 U/reaction of TOP2A,
as §1, with “assays (53.6” for “assays (58.6”, “of TOP2A.” for “of TOP2A,”

[1] = tested on: TOP2A-dependent TCF-transcription in SW620-TOP tumor organoids; assay: TCF (TOPflash) reporter assay in 3D tumor organoids; type: cell-based; details: for IC50: 72 hours
Method: TCF reporter assay in 3D Tumor organoid. Stable engineered cells containing pCDH-TOPflash-luc-EF1-puro were used to generate tumor organoid arrayed in 96-well plates and treated for 72 hours. One-Glo™ luciferase reagent and CellTiter-Glo™ 3D cell viability reagent (Promega) were used to determine the TCF reporter activity in viable cells.
After characterizing 3 and 7 as TOP2A ATP-competitive inhibitors, these compounds were next tested for their ability to inhibit TOP2A-dependent TCF-transcription using the well characterized TOPflash (TOP) luminescent reporter, which was used to generate a stably transduced SW620-TOP reporter cells as described previously (Zhou, et al., Oncogene 2016, 35:4990-9). These cells were used to generate single 3D tumor organoids (700 μm in diameter) uniformly arrayed in 96-well plates, which mimic aspects of tumor function observed in vivo. […] Like neo, the mode of action of compounds 3 and 7 also results in significant antitumor activity (FIGS. 3E-3H). […] In other words, the activity of 3 and 7 is long lasting, suppressing CSC stemness and related tumorigenicity. EMT is a major driving force promoting tumor cell invasion and metastasis. […] Tumor organoids were dissociated, and viable cells were washed and plated into the top chamber of 96-well invasion plate coated with Matrigel and incubated for an additional 72 hours without adding any additional compound. […] Taken together, the biological activity of 3 and 7 is consistent with the activity of neo, inhibiting TOP2A-dependent TCF-transcription that in turn reverses EMT while inhibiting the associated tumorigenic properties of mCRC.
A similar trend in IC50 values was observed compared to TOP2A enzyme studies, further supporting our proposed mechanism of action as inhibition of TOP2A-dependent TCF-transcription.
3D Tumor organoid TOPflash reporter assay. […] 35(38): p. 4990-9.] were used to generate tumor organoids arrayed in 96-well plates and treated for 72 h with TOP2A inhibitors. One-Glo™ luciferase reagent and CellTiter-Glo™ 3D cell viability reagent (Promega, WI) were used to determine the TCF reporter activity in viable cells. Briefly, reagents were added to the spheroids at 1:1 ratio (v:v) and the plates were placed on an orbital shaker (300 rpm) for 10 min at room temperature before the luminescence was read with Envision plate reader (PerkinElmer, MA). TCF reporter activity was normalized to organoid viability and inhibitors treated conditions were normalized to DMSO treated controls.

[2] = tested on: E-cadherin promoter activity (EcadPro-RFP) in SW620 cells; assay: EcadPro-RFP (mCherry) EMT reporter assay; type: cell-based; details: SW620 tumor organoids; for EC50: Table 2, 72 hours, read-out: % E-cadherin upregulation EC50
From the text: (§2) VimPro-GFP and EcadPro-RFP reporter assays. […] 35(38): p. 4990-9.]
as §2

[3] = tested on: vimentin promoter activity (VimPro-GFP) in SW620 cells; assay: VimPro-GFP EMT reporter assay
Method: VimPro-GFP and EcadPro-mCherry reporter assays. VimPiro-GFP: SW620 cells were first transduced with NucLight Red virus (Essen BioSciences) and selected with Zeocin at 200 μg/mL, and then transduced with pCDH-VimPro-GFP-EF1-puro virus and selected with puromycin at 4 μg/mL. The dual fluorescently labeled cells were plated and treated in 3D tumor organoid as described. Tumor organoid images were recorded every 2 hours over a 72 hours period using an incucyte ZOOM content imaging system (Essen BioSciences) or PerkinElmer Phenix imager (PerkinElmer).
Analogs were also assessed for their ability to modulate or reverse EMT using VimPro-GFP and EcadPro-RFP SW620 reporter cells cultured as tumor organoids, determining EC50 dose responses over 72 hours (Table 2).
VimPro-GFP and EcadPro-RFP reporter assays. Stable VimPro-GFP or EcadPro-RFP SW620 reporter cells were generated using pCDH-VimPro-GFP-EF1-puro virus or pCDH-EcadPro-mCherry-EF1-puro virus as previously reported. […] Transduced cells were selected with puromycin at 2 μg/mL. The stable fluorescent labeled reporter cells were then used to generate tumor organoids as described. Tumor organoids were then treated with TOP2A inhibitors at 10 μM for an additional 72 h. Following treatment, tumor organoids were stained with 16 μM of Hoechst 33342 for 1 h, which functions as a nuclear stain for imaging segmentation. Images were taken with a 5× air objective. Z stacks were set at 20 μm apart for a total of 7 layers. Imaging analysis was performed using an Opera Phenix high content screening (HCS) system and Harmony high-content imaging and analysis software interface (PerkinElmer, MA). Nuclei were identified with Hoechst 33342 stain within each layer, and cells were found with either GFP or mCherry channel. The intensities of each fluorescence channel within the cells were calculated and thresholds were set based on the background intensities. Percentages of GFP or mCherry positive cells were calculated and normalized to the DMSO treated group.
VimPro-GFP and EcadPro-RFP reporter assays. Stable VimPro-GFP or EcadPro-RFP SW620 reporter cells were generated using pCDH-VimPro-GFP-EF1-puro virus or pCDH-EcadPro-mCherry-EF1-puro virus as previously reported. […] Transduced cells were selected with puromycin at 2 μg/mL. The stable fluorescent labeled reporter cells were then used to generate tumor organoids as described. Tumor organoids were then treated with TOP2A inhibitors at 10 μM for an additional 72 h. Following treatment, tumor organoids were stained with 16 μM of Hoechst 33342 for 1 h, which functions as a nuclear stain for imaging segmentation. Images were taken with a 5× air objective.

[4] = Table 1, read-out: % Inhibition TOP2A (IC50 Values)
[5] = SW620-TOP tumor organoids, read-out: IC50 inhibition of TCF-transcription
[6] = read-out: % Vimentin downregulation EC50, Table 2, SW620 tumor organoids, 72 hours
[7] = read-out: IC50 TOP2A inhibition
[8] = Homo sapiens, SW-620, Table 2, SW620 tumor organoids, read-out: % TCP inhibition IC50
[9] = Homo sapiens, SW-620, 72 h, read-out: % Vimentin downregulation EC50 (μM)

SMILES | IC50 (Human TOP2A; [4]) | % Inhibition TOP2A (30 μM) (Human TOP2A; Table 1) | TOP2A inhibition, result in words (Human TOP2A) | IC50 [1, 5] | EC50 [2] | EC50 [3, 6] | inhibition at 30 µM (Human TOP2A; Table 1) | IC50 (Human TOP2A; [7]) | IC50 [1, 8] | EC50 ([2]; Homo sapiens, SW-620) | EC50 [3, 9] | inhibition of TCF-transcription (TOP-activity), in words ([1]; SW620 tumor organoids, TOPflash reporter) | E-cadherin upregulation (EcadPro-RFP), in words [2] | vimentin downregulation (VimPro-GFP), in words ([3]; SW620 tumor organoids) | IC50 ([1]; Table 2, SW620 tumor organoids, read-out: % TCP inhibition IC50)
CC(=O)Nc1ccc(-c2ccnc3c(O)c(NC(C)=O)ccc23)cc1 [Analog 35] | 1.9 µM | 97.0% | restored inhibitory activity against TOP2A | 2 µM | 5.5 µM | 9.5 µM | – | – | – | – | – | – | – | – | –
O=C(CCN1CCOCC1)Nc1ccc2c(-c3cc(F)ccc3O)ccnc2c1O [Analog 42] | – | – | – | 3.2 µM | – | – | 90% | 0.6 µM | 3.2 µM | 5.9 µM | 13.2 µM | – | – | – | –
CC(=O)Nc1ccc2c(-c3cc(F)ccc3O)ccnc2c1O [Analog 7] | – | – | complete enzyme inhibition | – | – | – | 99% | 5.81 µM and 5.8 µM | 6 µM | 5.3 µM | 10.8 µM | significantly inhibit TOP-activity; also recorded: significantly inhibit TOP2A-dependent TCF-transcription | upregulation of E-cadherin | dose-dependent downregulation of vimentin | –
CC(=O)Nc1ccc2c(-c3ccoc3)ccnc2c1O [Analog 56] | 6.4 µM | – | – | – | – | – | 86% | – | 7 µM | 10.6 µM | 25.7 µM | – | – | – | –
Cn1ccc2c(c1=O)C(=O)c1nccc3c1C2NC1=CCC=CC13 (stereo not drawn) [neo, neoamphimedine, reference compound] | – | – | significantly inhibits TOP2A mediated DNA decatenation | – | – | – | – | – | – | – | – | – | – | – | –
CC(C)(C)C(=O)Nc1ccc2c(-c3ccccc3)ccnc2c1O [Analog 39] | 1.3 µM | 97.0% | – | – | 3.1 µM | 4.7 µM | – | ~1 µM | – | – | – | – | – | – | 4.7 µM
